Values after ≈ are worked out from the molar mass of the structure shown. Where two headings read alike, the source gives them in different places.
Tests used:
[1] = test system: M. mycetomatis isolate MM55; assay: M. mycetomatis grain infection model in G. mellonella larvae, survival; type: in vivo, Galleria mellonella; parameters: In vivo efficacy, Larvae survival %: concentration or dose not given beside the values
[2] = test system: M. mycetomatis MM55; assay: IC50 determination, 2-fold dilution series 16 to 0.03125 μM; type: cell-based, Madurella mycetomatis; details: for IC50 / IC90: Madurella mycetomatis
[3] = test system: F. senegalensis strain CBS132257; assay: CLSI M38-A2 based in vitro susceptibility screening at 25 μM; type: cell-based, Falciformispora senegalensis; details: selected if >75% (resazurin) or >80% (XTT) fungal growth inhibited
[4] = test system: Me. romeroi strain CBS128765; assay: as above; type: cell-based, Medicopsis romeroi; details: selected if >75% (resazurin) or >80% (XTT) fungal growth inhibited
[5] = test system: ten different M. mycetomatis isolates; parameters: method as in PMID 24945848, PMID 22964246, PMID 31904836; details: asterisk: determined in previous works ref 19-21; cited from earlier work
[6] = test system: M. mycetomatis genome strain MM55; assay: CLSI M38-A2 based in vitro susceptibility screening (XTT or resazurin), growth at fixed concentration; type: cell-based, Madurella mycetomatis; details: Madurella mycetomatis
[7] = test system: M. mycetomatis; assay: Drug static or cidal; type: cell-based, Madurella mycetomatis
From the text: Supplement pntd.0010159.s001.xlsx, sheet "Pandemic Box Master sheet" | column: Drug static or cidal

[8] = MM55, replicate 1, read-out: IC50 1
[9] = MM55, replicate 1, read-out: IC90 1
[10] = MM55, replicate 2, read-out: IC50 2
[11] = MM55, replicate 2, read-out: IC90 2
[12] = MM55, replicate 3, read-out: IC50 3
[13] = MM55, replicate 3, read-out: IC90 3
[14] = replicate A, read-out: Percentage survival at 25um, 25 um A
[15] = replicate B, read-out: Percentage survival at 25um, 25 uM B
[16] = replicate C, read-out: Percentage survival at 25um, 25 uM C
[17] = MM55, mean of replicates, read-out: IC50 mean
[18] = mean of replicates, read-out: Percentage survival at 25um, 25 uM mean
[19] = mean of replicates, read-out: Percentage survival at 100um, 100 uM mean
[20] = replicate 1, read-out: Percentage survival at 100um, 100 uM A
[21] = replicate 2, read-out: Percentage survival at 100um, 100 uM A
[22] = replicate 3, read-out: Percentage survival at 100um, 100 uM A
[23] = MM55, mean of replicates, read-out: IC90 mean

SMILES | IC50 [2, 8] [µM] | IC90 [2, 9] [µM] | IC50 [2, 10] [µM] | IC90 [2, 11] [µM] | IC50 [2, 12] [µM] | IC90 [2, 13] [µM] | activity at 25 µM [6, 14] [%] | activity at 25 µM [6, 15] [%] | activity at 25 µM [6, 16] [%] | Drug static or cidal [7] | IC50 [2, 17] [µM] | activity at 25 µM [6, 18] [%] | activity at 100 µM [6, 19] [%] | activity at 100 µM [6, 20] [%] | activity at 100 µM [6, 21] [%] | activity at 100 µM [6, 22] [%] | IC90 [2, 23] [µM] | also measured
C[C@@H](c1nc(-c2ccc(C#N)cc2)cs1)[C@](O)(Cn1cncn1)c1ccc(F)cc1F [MMV1634362, Ravuconazole] | < 0.098 | < 0.098 | 1.04 | 4 | < 0.098 | 2.75 | -3.16 | -3.36 | 3.22 | – | – | – | – | – | – | – | – | Larvae survival rate on day ten ([1]; 20 μM per larvae at 4, 28, 52 h after infection, day ten): 26.7%; Effect on larvae survival Day 4 (words) ([1]; 20 μM per larvae, vs infected control, day four): prolonged larvae survival; Effect on larvae survival Day 10 (words) ([1]; 20 μM per larvae, vs infected control, day ten): able to prolong larvae survival; In vivo efficacy, Enhanced survival compared to control? ([1]; in vivo): yes *; In vivo efficacy, Larvae survival % ([1]; in vivo): 26.7%; Drug static or cidal [2]: Cidal; IC50 ([2]; MM55, Table 2, M. mycetomatis MM55, read-out: IC50): 0.01 µM; IC50 ([2]; MM55, mean, read-out: IC50 mean): < 0.098 µM; Inhibits growth of Falciformispora senegalensis at 25 μM [3]: neither F. senegalensis nor Me. romeroi growth were inhibited; Inhibits growth of Medicopsis romeroi at 25 μM [4]: neither F. senegalensis nor Me. romeroi growth were inhibited; MIC50 [5]: 10 nM (≈ 4.37 ng/mL); MIC range [5]: 0.004 to 0.06 µM; activity at 25 µM ([6]; mean, read-out: Percentage survival at 25um, 25 uM mean): -1.1%; activity at 100 µM ([6]; mean, read-out: Percentage survival at 100um, 100 uM mean): 4.1%; activity at 100 µM ([6]; replicate (first column), read-out: Percentage survival at 100um, 100 uM A): -3.18%; activity at 100 µM ([6]; replicate (second column), read-out: Percentage survival at 100um, 100 uM A): 5.51%; activity at 100 µM ([6]; replicate (third column), read-out: Percentage survival at 100um, 100 uM A): 9.97%
O=C(Nc1nnc(-c2ccc(Cl)cc2)o1)c1ccc(F)cc1 [MMV1782140] | 15.2 | 23.2 | 11.5 | 21.7 | 13.5 | > 25 | 5.38 | 8.31 | 13.2 | Cidal | 13.4 | 8.95 | 2.78 | -0.102 | 3.75 | 4.7 | – | –
Cc1ccc(NC(=O)c2cc(Cl)ccc2O)cc1 [MMV1578897] | > 25 | > 25 | > 25 | > 25 | > 25 | > 25 | 3.43 | 0.378 | 10.8 | Static | > 25 | 4.86 | 2.02 | 2.19 | 0.189 | 3.69 | > 25 | –
Oc1cccc(C(Nc2nccs2)c2ccc3cccnc3c2O)c1 (stereo not shown) [MMV642550] | – | – | – | – | – | – | -5.33 | 6.92 | 2.03 | Cidal | > 25 | – | – | – | – | – | > 25 | IC50 ([2]; MM55, replicate 1, read-out: IC50 1 um): > 25 µM; IC90 ([2]; MM55, replicate 1, read-out: IC90 1 um): > 25 µM; IC50 ([2]; MM55, replicate 2, read-out: IC50 2 um): > 25 µM; IC90 ([2]; MM55, replicate 2, read-out: IC90 2 um): > 25 µM; IC50 ([2]; MM55, replicate 3, read-out: IC50 3 um): > 25 µM; IC90 ([2]; MM55, replicate 3, read-out: IC90 3 um): > 25 µM; activity at 25 µM ([6]; mean of three replicates, read-out: Percentage survival at 25um, 25 uM mean): 1.21%; activity at 100 µM ([6]; first replicate column, read-out: Percentage survival at 100um, 100 uM A): 4.63%; activity at 100 µM ([6]; mean of three replicates, read-out: Percentage survival at 100um, 100 uM mean): 8.03%; activity at 100 µM ([6]; second replicate column, read-out: Percentage survival at 100um, 100 uM A): 8.66%; activity at 100 µM ([6]; third replicate column, read-out: Percentage survival at 100um, 100 uM A): 10.8%

From article PMC8815882, “Screening the pandemic response box identified benzimidazole carbamates, Olorofim and ravuconazole as promising drug candidates for the treatment of eumycetoma” (PLoS Neglected Tropical Diseases, 2022)
